pEC50, pIC50: −log10 of the molar value. Read-outs that look alike come from different tables or passages of the source.
Columns and labels:
[1] = molecular target: purified human IDO protein (Homo sapiens, UniProt P14902); experiment: Enzymatic IDO assay (kynurenine production, absorbance 480 nm); settings: enzymatic activity
[2] = molecular target: human IDO (Homo sapiens, UniProt P14902); experiment: Cell based IDO/kynurenine assay in IDO-293-T-Rex cells; settings: kynurenine production, 293T cell line stably expressing human IDO; values reported in ranges; read-out: hIDO EC50
Description: 293-T-REx™ cells (Invitrogen) constitutively express a tet operator binding repressor protein and are maintained in DMEM, 10% FBS, 1× Penicillin+Streptomycin, 2 mM L-glutamine, 5 μg/mL blasticidin at 37° C. with a 5% CO2 in air atmosphere and typically split prior to confluency. Cells were passed by splitting the culture 1/10—by removing media by aspiration, washing 1× with PBS, incubating with 0.25% trypsin/EDTA until the cells detach, disbursing the cells in fresh growth media, and plating at 1/10 dilutions in fresh growth media. For long term cryopreservation, cells are detached from the plate as described above, collected by centrifugation, resuspended in freeze medium (growth medium, 10% DMSO), stored in 1.8 mL cyropreservation vials (˜2−5×10^6 cells per vial), in liquid nitrogen vapor storage tanks.
IDOl-expressing 293-T-Rex™ cell lines were generated by stable transfection of plasmid pcDNA-tetO-IDO expressing human IDO or murine IDO under the control of the doxycycline-inducible CMV-tet promoter. Transfected cells were selected in DBZ medium (DMEM, 10% FBS, 1× Penicillin+Streptomycin, 2 mM L-glutamine, 5 μg/mL blasticidin and 25 μg/ml Zeocin) at 37° C. with a 5% CO2 in air atmosphere. Individual clones were isolated by limiting dilution cloning from these populations.
[…]. The cells incubated in Neutral medium serve as negative control of the assay. The cells incubated in Induction medium and without inhibitor serve as the positive control of the assay. The incubation is carried out for 16 h at 37° C. in a cell culture incubator. 200 μL of medium are transferred to U-bottom polypropylene 96-well plates containing 25 μL of 30% TCA, incubated 30 minutes at 60° C. and centrifuged at 3400 g for 5 minutes. 150 μL of the clear supernatant is transferred to a polystyrene 96-well plate containing 50 μL of 4% (w/v) of p-dimethylaminobenzaldehyde in acetic acid, incubated for 10 min. Kynurenine concentration is determined by measuring the absorbance at 480 nm.
The conditions of the assay were as described in the examples.

[3] = hIDO IC50, recombinant human IDO, values reported in ranges
[4] = read-out: hIDO IC50, recombinant human IDO, values reported in ranges
[5] = hIDO IC50, Table 16, recombinant human IDO
[6] = hIDO IC50, Table 15, recombinant human IDO

Chain of purified human IDO protein (P14902 whole entry P110S/E119G): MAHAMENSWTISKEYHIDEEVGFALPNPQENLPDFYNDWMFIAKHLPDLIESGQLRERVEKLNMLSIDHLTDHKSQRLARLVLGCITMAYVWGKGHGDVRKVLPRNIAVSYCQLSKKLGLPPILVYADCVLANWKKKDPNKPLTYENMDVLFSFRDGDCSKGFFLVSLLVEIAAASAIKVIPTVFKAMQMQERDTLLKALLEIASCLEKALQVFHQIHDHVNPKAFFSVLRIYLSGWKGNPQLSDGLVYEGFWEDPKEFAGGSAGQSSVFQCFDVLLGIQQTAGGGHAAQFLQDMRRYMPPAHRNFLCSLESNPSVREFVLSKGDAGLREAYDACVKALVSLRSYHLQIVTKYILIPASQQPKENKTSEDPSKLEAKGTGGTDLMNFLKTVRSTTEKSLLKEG
Chain of human IDO (P14902 whole entry): as the sequence (P14902 whole entry P110S/E119G) above, with S110P, G119E counted along it

S=C(NCCc1c[nH]c2ccccc12)SCCc1ccccc1 [compound 1, Phenethyl 2-(1H-indol-3-yl)ethylcarbamodithioate]
pIC50 [1, 3]: 3.00 to 4.00
pEC50 [2]: 3.00 to 4.00

COc1ccc(CCSC(=S)NCCc2c[nH]c3ccccc23)cc1 [compound 2, 4-Methoxyphenethyl 2-(1H-indol-3-yl)ethylcarbamodithioate]
pIC50 [1, 3]: 3.00 to 4.00
pEC50 [2]: 3.00 to 4.00

Fc1ccc(CCSC(=S)NCCc2c[nH]c3ccccc23)cc1 [compound 3, 4-Fluorophenethyl 2-(1H-indol-3-yl)ethylcarbamodithioate]
pIC50 [1, 3]: 3.00 to 4.00
pEC50 [2]: 3.00 to 4.00

S=C(NCCc1c[nH]c2ccccc12)SCCc1ccc(Br)cc1 [compound 4, 4-Bromophenethyl 2-(1H-indol-3-yl)ethylcarbamodithioate]
pIC50 [1, 3]: 3.00 to 4.00
pEC50 [2]: 4.00 to 4.70

CC(CSC(=S)NCCc1c[nH]c2ccccc12)c1ccccc1 (stereo not shown) [compound 6, 2-Phenylpropyl 2-(1H-indol-3-yl)ethylcarbamodithioate]
pIC50 [1, 3]: 3.00 to 4.00
pEC50 [2]: 3.00 to 4.00

S=C(NCCc1c[nH]c2ccccc12)SCCc1cccc(Br)c1 [compound 7, 3-Bromophenethyl 2-(1H-indol-3-yl)ethylcarbamodithioate]
pIC50 [1, 3]: 3.00 to 4.00
pEC50 [2]: 3.00 to 4.00

S=C(NCCc1c[nH]c2ccccc12)SCCc1cccc(Cl)c1 [compound 8, 3-Chlorophenethyl 2-(1H-indol-3-yl)ethylcarbamodithioate]
pIC50 [1, 3]: 3.00 to 4.00
pEC50 [2]: 3.00 to 4.00

Cc1ccc(CCSC(=S)NCCc2c[nH]c3ccccc23)cc1 [compound 9, 4-Methylphenethyl 2-(1H-indol-3-yl)ethylcarbamodithioate]
pIC50 [1, 3]: 3.00 to 4.00
pEC50 [2]: 4.00 to 4.70

COc1cccc(CCSC(=S)NCCc2c[nH]c3ccccc23)c1 [compound 10, 3-methoxyphenethyl 2-(1H-indol-3-yl)ethylcarbamodithioate]
pIC50 [1, 3]: 3.00 to 4.00
pEC50 [2]: 3.00 to 4.00

Fc1ccccc1CCSC(=S)NCCc1c[nH]c2ccccc12 [compound 12, 2-fluorophenethyl 2-(1H-indol-3-yl)ethylcarbamodithioate]
pIC50 [1, 3]: 3.00 to 4.00
pEC50 [2]: 3.00 to 4.00

CSC(=S)NCCc1cccc(Cl)c1 [compound 14]
pIC50 [1, 4]: 3.00 to 4.00
pEC50 [2]: 3.00 to 4.00

Cc1cccc(CCSC(=S)NCCc2c[nH]c3ccccc23)c1 [compound 20, 3-Methylphenethyl 2-(1H-indol-3-yl)ethylcarbamodithioate]
pIC50 [1, 3]: 3.00 to 4.00

S=C(NCCc1c[nH]c2ccccc12)SCCc1ccccc1Cl [compound 21, 2-Chlorophenethyl 2-(1H-indol-3-yl)ethylcarbamodithioate]
pIC50 [1, 3]: 3.00 to 4.00
pEC50 [2]: 3.00 to 4.00

COc1cc2oc(=O)cc(CSC(=S)NCCc3c[nH]c4ccccc34)c2cc1OC [compound 23, (6,7-Dimethoxy-2-oxo-2H-chromen-4-yl)methyl 2-(1H-indol-3-yl)ethyl-carbamodithioate]
pIC50 [1, 3]: 3.00 to 4.00
pEC50 [2]: 4.00 to 4.70

CSC(=S)NCCCCCCc1c[nH]c2ccccc12 [compound 27, Methyl 6-(1H-indol-3-yl)hexylcarbamodithioate]
pIC50 [1, 3]: 3.00 to 4.00
pEC50 [2]: 3.00 to 4.00

CSC(=S)NC(C)(C)Cc1c[nH]c2ccccc12 [compound 28, Methyl 1-(1H-indol-3-yl)-2-methylpropan-2-ylcarbamodithioate]
pIC50 [1, 3]: 3.00 to 4.00
pEC50 [2]: 4.00 to 4.70

S=C(NCCc1c[nH]c2ccccc12)SCCc1c[nH]c2ccccc12 [compound 30, 2-(1H-Indol-3-yl)ethyl 2-(1H-indol-3-yl)ethylcarbamodithioate]
pIC50 [1, 3]: 3.00 to 4.00
pEC50 [2]: 4.00 to 4.70

CSC(=S)NCCc1c[nH]c2ccc(Cl)cc12 [compound 32]
pIC50 [1, 4]: 3.00 to 4.00
pEC50 [2]: 4.00 to 4.70

Cc1ccc2cc(CSC(=S)NCCc3c[nH]c4ccccc34)ccc2n1 [compound 38, (2-Methylquinolin-6-yl)methyl 2-(1H-indol-3-yl)ethylcarbamodithioate]
pIC50 [1, 3]: 3.00 to 4.00
pEC50 [2]: 4.00 to 4.70

CSC(=S)NCCc1c[nH]c2ccc([N+](=O)[O-])cc12 [compound 40]
pIC50 [1, 4]: 3.00 to 4.00
pEC50 [2]: 3.00 to 4.00

CSC(=S)NCCc1c[nH]c2c(Cl)cc(Cl)cc12 [compound 42]
pIC50 [1, 4]: 3.00 to 4.00
pEC50 [2]: 3.00 to 4.00

CSC(=S)NCCc1c[nH]c2cc(Cl)cc(Cl)c12 [compound 43]
pIC50 [1, 4]: 3.00 to 4.00
pEC50 [2]: 3.00 to 4.00

CSC(=S)NCCc1c[nH]c2cc(C(F)(F)F)cc(C(F)(F)F)c12 [compound 44]
pIC50 [1, 4]: 3.00 to 4.00
pEC50 [2]: 2.00 to 3.00

CSC(=S)NCCc1ccncc1 [compound 69, Methyl 2-(pyridin-4-yl)ethylcarbamodithioate]
pIC50 [1, 3]: 3.00 to 4.00

S=C1SCCCN1Cc1ccccc1 [compound 77, 3-Benzyl-1,3-thiazinane-2-thione]
pIC50 [1, 3]: 3.00 to 4.00

S=C1OCCN1Cc1ccccc1 [compound 81, 3-Benzyloxazolidine-2-thione]
pIC50 [1, 3]: 3.00 to 4.00

O=C(O)CCn1[nH]c(=O)c2ccccc21 [compound 267, 3-(3-oxo-2,3-dihydro-1H-indazol-1-yl)propanoic acid]
pIC50 [1, 3]: 3.00 to 4.00

CCC(CC)C1NC(C(=O)O)Cc2c1[nH]c1ccccc21 (stereo not shown) [compound 525, 1-(pentan-3-yl)-2,3,4,9-tetrahydro-1H-pyrido[3,4-b]indole-3-carboxylic acid]
pIC50 [1, 3]: 3.00 to 4.00

S=C(NCCCc1c[nH]c2ccccc12)Nc1nccs1 [compound 565, 1-(3-(1H-indol-3-yl)propyl)-3-(thiazol-2-yl)thiourea]
pIC50 [1, 3]: 3.00 to 4.00

S=C(NCc1c[nH]c2ccccc12)Nc1nccs1 [compound 568, 1-((1H-indol-3-yl)methyl)-3-(thiazol-2-yl)thiourea]
pIC50 [1, 3]: 3.00 to 4.00

S=C(NCc1ccc2ccccc2c1)Nc1nccs1 [compound 591, 1-(naphthalen-2-ylmethyl)-3-(thiazol-2-yl)thiourea]
pIC50 [1, 3]: 3.00 to 4.00

Nc1ccccc1NC(=O)CCc1c[nH]c2ccccc12 [compound 592, N-(2-aminophenyl)-3-(1H-indol-3-yl)propanamide]
pIC50 [1, 3]: 3.00 to 4.00

OCCc1c[nH]c2ccccc12 [compound 606, 2-(1H-indol-3-yl)ethanol]
pIC50 [1, 3]: 3.00 to 4.00

Oc1ccc(Cc2ccccc2)c2cccnc12 [compound 664, 5-benzylquinolin-8-ol]
pIC50 [1, 3]: 3.00 to 4.00

S=C(NCCCc1c[nH]c2ccccc12)c1ccccc1 [compound 673, N-(3-(1H-indol-3-yl)propyl)benzothioamide]
pIC50 [1, 3]: 3.00 to 4.00

Oc1noc(O)c1-c1ccccc1 [compound 707, 4-phenylisoxazole-3,5-diol]
pIC50 [1, 3]: 3.00 to 4.00

S=C1OCCN1Cc1ccc2ccccc2c1 [compound 786, 3-(Naphthalen-2-ylmethyl)oxazolidine-2-thione]
pIC50 [1, 3]: 3.00 to 4.00

O=C(Cc1ccccc1)NO [compound 889, N-hydroxy-2-phenylacetamide]
pIC50 [1, 3]: 3.00 to 4.00

NO[C@H](Cc1ccccc1)C(=O)O [compound 1690, (R)-2-(aminooxy)-3-phenylpropanoic acid]
pIC50 [1, 5]: 3.00 to 4.00

CC(C)(C)OC(=O)NCC(ON)c1ccccc1 (stereo not shown) [compound 1876, tert-butyl 2-(aminooxy)-2-phenylethylcarbamate]
pIC50 [1, 6]: 3.00 to 4.00

NCCC(ON)c1ccccc1 (stereo not shown) [compound 1877, 3-(aminooxy)-3-phenylpropan-1-amine]
pIC50 [1, 6]: 4.00 to 5.00

NO[C@@H](CCO)c1ccccc1 [compound 1883, (S)-3-(aminooxy)-3-phenylpropan-1-ol]
pIC50 [1, 6]: 3.00 to 4.00

CC(=O)NCC(ON)c1ccccc1 (stereo not shown) [compound 1899, N-(2-(aminooxy)-2-phenylethyl)acetamide]
pIC50 [1, 6]: 3.00 to 4.00

NOc1ccccc1 [compound 1900, O-phenylhydroxylamine]
pIC50 [1, 5]: 4.00 to 5.00

NOC(CCC(=O)NC1CCCCC1)c1ccccc1 (stereo not shown) [compound 1901, 4-(aminooxy)-N-cyclohexyl-4-phenylbutanamide]
pIC50 [1, 6]: 3.00 to 4.00

CNCC(ON)c1ccccc1 (stereo not shown) [compound 1902, 2-(aminooxy)-N-methyl-2-phenylethanamine]
pIC50 [1, 6]: 3.00 to 4.00

CNCCC(ON)c1ccccc1 (stereo not shown) [compound 1904, 3-(aminooxy)-N-methyl-3-phenylpropan-1-amine]
pIC50 [1, 6]: 3.00 to 4.00

NOC(CCN1CCOCC1)c1ccccc1 (stereo not shown) [compound 1929, O-(3-morpholino-1-phenylpropyl)hydroxylamine]
pIC50 [1, 6]: 3.00 to 4.00

NOC(CN1CCOCC1)c1ccccc1 (stereo not shown) [compound 1936, O-(2-morpholino-1-phenylethyl)hydroxylamine]
pIC50 [1, 6]: 4.00 to 5.00

CNC(=O)[C@@H](ON)c1ccccc1 [compound 2033, (S)-2-(aminooxy)-N-methyl-2-phenylacetamide]
pIC50 [1, 6]: > 5.00

CNC(=O)[C@H](ON)c1ccccc1 [compound 2034, (R)-2-(aminooxy)-N-methyl-2-phenylacetamide]
pIC50 [1, 6]: 3.00 to 4.00

— patent publication US20130289083A1, “IDO Inhibitors” (priority 2007, published 2013)
